What was measured:
serum bile acids = assay: Phase 1 ascending multiple oral doses of LUM001 in healthy adults: serum bile acid analysis; type: in vivo, human; details: 28 days
Protocol: This Phase 1 study was a randomized, double-blind, placebo-controlled study of ascending multiple oral doses of LUM001 in healthy, adult subjects. This study was conducted at a single center. There were 13 LUM001 dosing panels: 10, 20, 60, 100, and 20 mg every morning (qAM) (2) (i.e., the regimen was tested a second time in the study), 5 mg every evening (qPM), 0.5, 1, 2.5, 5, 2.5 (2), 5 (2), and 0.5 to 5 mg qAM dose titration. Most of the dosing panels included subjects treated with matching placebo. No subject participated in more than 1 dosing panel. Subjects were randomized into the study by dosing panel, and all subjects within a dosing panel received study medication at approximately the same time each day. Safety was reviewed for each panel before subsequent panels were initiated. A total of 167 subjects were treated for 28 days, 147 with LUM001 and 20 with placebo. […]
On Day 1 of the Treatment Period, subjects who qualified for enrollment were randomized in the order in which they were admitted to the research facility. […] The safety and tolerability of LUM001 were evaluated by physical examination, ascertainment of adverse signs and symptoms, and clinical laboratory studies. […]
SBA were analyzed as part of the routine clinical analysis of the serum samples collected at each time point.

[1] = system: Hepatic HMG-CoA Reductase; assay: Hepatic HMG-CoA reductase activity assay, hamster liver microsomes; type: in vivo, golden Syrian hamster; details: 28 days
Text: Male golden Syrian hamsters (126-147 gm) were obtained from Charles Rivers Laboratories and were single housed in a constant temperature environment with alternating 12-hour light and dark cycles. Hamsters were fed Teklad 7001 rodent meal chow at libitum for two weeks before the experimental studies began and switched to Teklad 7001 rodent meal chow supplemented with 0.24% cholesterol on day one of the 28-day experiment. Water was continuously available to the animals. Hamsters were assigned to groups in a manner that normalized each group by pretreatment body weights. SD-5613 was dissolved in an aqueous solution of 0.2% (w/v) Tween 80 and administered Q.D. by intragastric gavage between 9 a.m. and 10 a.m. each morning using a syringe fitted with a flexible feeding tube. Blood samples were collected after 14- and 28-day treatment periods by orbital sinus and cardiac puncture, respectively. Hamsters were anesthetized but not fasted prior to blood collections. Fecal samples were collected during a 48-hour period at the end of days 14 and 28 (i.e. days 13-14 and 27-28). Hamsters were sacrificed using carbon dioxide asphyxiation to obtain the following tissue samples: liver, kidneys, colon and cecum.
Homogenates of three gram liver tissue samples were prepared in 25 ml homogenization buffer [0.1 M potassium phosphate buffer, pH 7.2, containing 0.1 M sucrose, 50 mM KCl, 50 mM NaF, 5 mM ethylene glycol-bis(β-aminoethyl ether)-N,N,N′,N′-tetraacetic acid (EGTA), 1 mM EDTA, 3 mM dithiothreitol (DTIT), and 1 mM phenylmethylsulfonyl fluoride (PMSF)]. A microsomal fraction was prepared by centrifugation at 10,000×g for ten minutes. The supernatant was subjected to centrifugation at 105,000×g for two hours. The microsomal fraction was resuspended in a 0.1 M Na tetrapyrophosphate buffer (pH 10), with 50 mM NaF, and 1 mM EDTA, and subjected to centrifugation for one hour at 105,000×g. The microsomal fraction was resuspended in the homogenization buffer, and assayed for protein content by Coomassie Protein Plus Assay reagent.
Microsomes (200 μg) were preincubated for 15 minutes at 37° C. in a total volume of 225 μl buffer containing 0.1 M potassium phosphate (pH 7.4), 10 mM imidazole, 5 mM DTT, 10 mM EDTA, 3 mM NADP, 12 mM glucose-6-phosphate and 1 unit glucose-6-phosphate dehydrogenase (catalog number G4134, Sigma, St. Louis). The HMG-CoA reductase assay was initiated by the addition of 9 nmoles (0.5 μCi). DL-[-3^14C]-HMG-CoA (final assay volume was DL-3-[^14C]-250 μl). The mixture was incubated for 60 minutes at 37° C. after which the assay was stopped with 25 μl of 6 N HCl. [^3H]Mevalonic acid (0.1 μCi), used as an internal standard to correct for incomplete recovery, was added to the reaction mixture along with 3 mg of unlabeled mevalonic acid lactone. The mixture was then incubated for an additional 30 minutes at 37° C. The [^14C]mevalonate that was formed and converted into mevalonic acid lactone during both incubations was isolated by thin layer chromatography. Each lane was scraped into 3 ml of InstaGel XF (Packard, Meriden, Conn.) and read on a Beckman Scintillator Counter. Reagents unless noted otherwise were obtained from Sigma, St. Louis, Mo. Isotopes were obtained from NEN Life Science Products, Boston, Mass.

With `CCCCC1(CCCC)CS(=O)(=O)c2ccc(N(C)C)cc2[C@@H](c2ccc(OCc3ccc(C[N+]45CCN(CC4)CC5)cc3)cc2)[C@H]1O` [LUM001] the “effect on serum bile acids” value (serum bile acids) was “significant reduction”, the “Hepatic HMG-CoA Reductase” value ([1]; 5 mg/kg/day) was 4.6 ± 0.4 pmol/mg-protein/min and the “Hepatic HMG-CoA Reductase, % change from vehicle group” value (from here on “Hepatic HMG-CoA Reductase, % change”) ([1]; 5 mg/kg/day) was “(+31) %”. For the same compound, the “Hepatic HMG-CoA Reductase” value ([1]; 15 mg/kg/day) was 16 ± 4 pmol/mg-protein/min, the “Hepatic HMG-CoA Reductase, % change” value ([1]; 15 mg/kg/day) was “(+346) %” and the “Hepatic HMG-CoA Reductase” value ([1]; 50 mg/kg/day) was 17 ± 4 pmol/mg-protein/min. The “Hepatic HMG-CoA Reductase, % change” value ([1]; 50 mg/kg/day) was “(+389) %”.

From patent publication US20140275090A1, “BILE ACID RECYCLING INHIBITORS FOR TREATMENT OF PRIMARY SCLEROSING CHOLANGITIS AND INFLAMMATORY BOWEL DISEASE” (Lumena Pharmaceuticals, Inc., priority 2013, published 2014)
